Test results: patent US5985822A, “Inhibition of glial cell proliferation with N-CAM homophilic peptides” (The Scripps Research Institute, priority 1995, dated 1999)
Like-named read-outs stand apart in the source and are kept apart here.

Key:
[1] = system: rat forebrain astrocytes in primary culture; assay: Astrocyte proliferation assay ([3H]-thymidine incorporation normalized to [35S]-methionine); format: cell-based; details: for effect of drug on the ability of N-CAM to inhibit astrocyte proliferation (in words): drug in the presence of N-CAM; for Drug Alone: means of triplicate (Table 5); for effect of oligonucleotide preincubation on inhibition of proliferation by N-CAM: 200 nM oligonucleotide 48 hours before 2 μg/ml N-CAM; for effect of oligonucleotide alone on proliferation: 200 nM, no N-CAM added
Description: Primary cultures of astrocytes were prepared from the forebrains of 4-5 day old neonatal rats. After decapitation and removal of the forebrains from the skull, the meninges were carefully peeled off, and forebrain tissue was triturated in sterile phosphate buffered saline (PBS) using firepolished pipettes. The resulting suspension of tissue fragments was incubated in Hank's balanced salt solution (Gibco BRL) with 2.5 mg/ml trypsin, 1 mM EDTA and 0.1 mg/ml DNase (Boehringer) at 37° C. for 15 minutes. […] The pellet was resuspended in serum free medium (SFM) consisting of Dulbecco's Modified Eagle Medium (D-MEM), 2 mM L-glutamine, 50 U/ml penicillin G sodium and 50 μg/ml streptomycin sulfate (all from Gibco BRL) supplemented by 10% (vol/vol) fetal bovine serum (FBS). The cells were transferred to a standard 100 mm tissue culture dish (Falcon) and incubated at 37° C. for 1-2 hours. After mild shaking, the supernatant containing unattached cells was transferred to a 100 mm collagen-coated dish. […] Cell samples were checked regularly for the expression of GFAP, a marker for astrocytes.
After cell attachment, the culture medium was exchanged for SFM. In antisense experiments, oligonucleotides were added at the same time (T=0). […] After another 12 hours (at T=60), [^3 H]-thymidine (New England Nuclear, 20 Ci/mmol) was added (0.38 μM, 10 μCi/ml). Following an additional 12 hours (T=72), the wells were drained, counts precipitated by ice-cold […] trichloroacetic acid, and the plates left to dry. Counts were solubilized overnight by adding 100 μl 1 N KOH to each well, neutralized with 100 μl 1 N HCl, transferred to liquid scintillation vials and counted in 3 ml of Beckman Ready Safe liquid scintillation cocktail on a Packard 1600 TR counter. […] In this paper, proliferation is expressed as [^3 H]-thymidine incorporation normalized to [35]-methionine incorporation and calculated as [^3 H] dpm/ [35] dpm.

N-CAM = assay: Levels of N-CAM expression in astrocytes by Western blotting (antisense experiments); format: cell-based, rat; details: oligonucleotide added for 48 hours
Description: The amounts of N-CAM present in astrocytes were quantified by Western blotting. Cultures were grown as described and cellular material was lysed in buffer (phosphate buffered saline, pH 7.4, containing 0.5% NP-40, 350 μg/ml PMSF, 2 μg/ml aprotinin, 0.5 μg/ml leupeptin, and 0.7 μg/ml pepstatin A) at 4° C. Standard Western blotting techniques were employed either using cell lysate directly or after N-CAM immunoprecipitation. [^125 I]-Immunolabeled N-CAM was estimated by densitometry on a Molecular Dynamics PhosporImager using ImageQuant software.
[…]. After deprotection, the oligonucleotides were purified using HPLC, ethanol precipitated, solubilized in distilled water and added to the culture medium at the indicated concentrations.

CCCCC/C=C\C/C=C\C/C=C\C/C=C\CCCC(=O)O [Arachidonic Acid, arachidonic acid]
[3H]-thymidine incorporation, Drug + N-CAM ([1]; drug 10 μM plus N-CAM 2 μg/ml): 60 ± 12 % SFM Ctrl | [3H]-thymidine incorporation, Drug alone ([1]; drug 10 μM, 2×10^5 cells/ml): 107 ± 10 % SFM Ctrl | effect of drug on the ability of N-CAM to inhibit astrocyte proliferation (in words) [1]: had no effect on the ability of N-CAM to inhibit astrocyte proliferation

mastoparan
effect of drug on astrocyte proliferation (in words) [1]: stimulated astrocyte proliferation | Drug + Ig3 ([1]; drug 50 μM plus Ig3 2 μg/ml (Table 5)): 192.5 % of SFM Control | [3H]-thymidine incorporation, Drug + N-CAM ([1]; drug 50 μM plus N-CAM 2 μg/ml (Table 4)): 205 ± 30 % SFM Ctrl | Drug + N-CAM ([1]; drug 50 μM plus N-CAM 2 μg/ml (Table 5)): 202.5 % of SFM Control | [3H]-thymidine incorporation, Drug alone ([1]; drug 50 μM, 2×10^5 cells/ml (Table 4)): 213 ± 47 % SFM Ctrl | Drug Alone ([1]; drug 50 μM, 2×10^5 cells/ml): 210 % of SFM Control | effect of drug on the ability of N-CAM to inhibit astrocyte proliferation (in words) [1]: not inhibited by the concentration of N-CAM used

calphostin C
effect of drug on astrocyte proliferation (in words) [1]: inhibits proliferation | [3H]-thymidine incorporation, Drug alone ([1]; drug 0.1 μM, 2×10^5 cells/ml): 111 ± 35 % SFM Ctrl | [3H]-thymidine incorporation, Drug alone ([1]; drug 0.5 μM, 2×10^5 cells/ml): 54 ± 35 % SFM Ctrl

5'-AGAUCCUUAG WUCGCAGCAUUGUA-3' (antisense AGAUCCUUAGUUCGCAGCAUUGUA; phosphorothioate linkages, further chemistry not given here) [N-CAM antisense RNA, phosphorothioate oligoribonucleotide complementary to position 205 to 228 of rat N-CAM]
effect on N-CAM expression (in words) (N-CAM): significantly reduced N-CAM expression | effect of oligonucleotide preincubation on inhibition of proliferation by N-CAM [1]: weaker inhibitory effect of N-CAM on proliferation | effect of oligonucleotide alone on proliferation [1]: no effect on proliferation

C=C[C@@]1(C)CC(=O)[C@]2(O)[C@@]3(C)[C@@H](O)CCC(C)(C)[C@@H]3[C@H](O)[C@H](OC(C)=O)[C@@]2(C)O1 [Forskolin, forskolin]
[3H]-thymidine incorporation, Drug alone ([1]; drug 1 μM, 2×10^5 cells/ml): 73 ± 2 % SFM Ctrl | [3H]-thymidine incorporation, Drug alone ([1]; drug 10 μM, 2×10^5 cells/ml): 32 ± 6 % SFM Ctrl | effect of drug on astrocyte proliferation (in words) ([1]; drug alone, astrocyte cultures): blocks proliferation of astrocytes in culture

CCCCCCCCCCCCCC(=O)O[C@@H]1[C@@H](C)[C@@]2(O)[C@@H](C=C(CO)C[C@]3(O)C(=O)C(C)=C[C@@H]23)[C@@H]2C(C)(C)[C@]12OC(C)=O [PMA]
effect of drug on astrocyte proliferation (in words) [1]: strong mitogenic response | [3H]-thymidine incorporation, Drug alone ([1]; drug 10 nM, 2×10^5 cells/ml): 138 ± 16 % SFM Ctrl | [3H]-thymidine incorporation, Drug + N-CAM ([1]; drug 100 nM plus N-CAM 2 μg/ml): 228 % SFM Ctrl | [3H]-thymidine incorporation, Drug alone ([1]; drug 100 nM, 2×10^5 cells/ml): 268 ± 34 % SFM Ctrl

5'-GUCCAUGUACAUCUAGUCAGUUGA-3 (chemistry not given here) [random antisense RNA]
effect on N-CAM expression (in words) (N-CAM): no effect on N-CAM expression | N-CAM level (sum of all molecular forms, mostly 140 kD and 120 kD) (N-CAM; mean ± S.E.M. (n)): 87 ± 18 % Control | effect of oligonucleotide preincubation on inhibition of proliferation by N-CAM [1]: no such effect | effect of oligonucleotide alone on proliferation [1]: no effect on proliferation

C[C@]12O[C@H](C[C@]1(O)C(=O)O)n1c3ccccc3c3c4c(c5c6ccccc6n2c5c31)CNC4=O [K252b]
[3H]-thymidine incorporation, Drug + N-CAM ([1]; drug 100 nM plus N-CAM 2 μg/ml): 85 ± 5 % SFM Ctrl | [3H]-thymidine incorporation, Drug alone ([1]; drug 100 nM, 2×10^5 cells/ml): 98 ± 17 % SFM Ctrl | [3H]-thymidine incorporation, Drug + N-CAM ([1]; drug 200 nM plus N-CAM 2 μg/ml): 64 ± 1 % SFM Ctrl | [3H]-thymidine incorporation, Drug alone ([1]; drug 200 nM, 2×10^5 cells/ml): 78 ± 15 % SFM Ctrl | effect of drug on the ability of N-CAM to inhibit astrocyte proliferation (in words) [1]: allowed the astrocytes cells to grow normally

COC(=O)C=Cc1cc(O)ccc1O [Methyl 2,5-dihydroxycinnamate, methyl 2,5-dihydroxycinnamate]
Drug + Ig3 ([1]; drug 0.25 μg/ml plus Ig3 2 μg/ml (Table 5)): 59 % of SFM Control | Drug + N-CAM ([1]; drug 0.25 μg/ml plus N-CAM 2 μg/ml (Table 5)): 60 % of SFM Control | Drug Alone ([1]; drug 0.25 μg/ml, 2×10^5 cells/ml): 65 % of SFM Control

bFGF: basic fibroblast growth factor, Upstate Biotechnology Incorporated
proliferation as compared to cultures in SFM ([1]; 20 ng/ml bFGF, n=12): 347±56%

Pertussis Toxin
effect of drug on astrocyte proliferation (in words) [1]: slightly inhibited astrocyte proliferation | [3H]-thymidine incorporation, Drug + N-CAM ([1]; drug 1 μg/ml plus N-CAM 2 μg/ml): 57 ± 13 % SFM Ctrl | [3H]-thymidine incorporation, Drug alone ([1]; drug 1 μg/ml, 2×10^5 cells/ml): 67 ± 13 % SFM Ctrl | [3H]-thymidine incorporation, Drug + N-CAM ([1]; drug .5 μg/ml plus N-CAM 2 μg/ml): 53 ± 9 % SFM Ctrl | [3H]-thymidine incorporation, Drug alone ([1]; drug .5 μg/ml, 2×10^5 cells/ml): 74 ± 20 % SFM Ctrl | effect of drug on the ability of N-CAM to inhibit astrocyte proliferation (in words) [1]: N-CAM was still able to inhibit proliferation

B1: N-CAM purified from embryonic chick brain: N-CAM purified from embryonic chick brain, which binds to rodent N-CAM (protein, UniProt P13590 20-1091, looked up)
Neural cell adhesion molecule …: LQVDIVPSQGEISVGESKFFLCQVAGEAKYKDISWFSPNGEKLTPNQQRISVVRNDDFSSTLTIYNANIDDAGIYKCVVSSVEEGDSEATVNVKIFQKLMFKNAPTPQEFKEGDDAVIVCDVVSSLPPTIIWKHKGRDVMLKKDVRFIVLSNNYLQIRGIKKTDEGTYRCEGRILARGEINFKDIQVIVNVPPSVRARQSTMNATANLSQSVTLACDADGFPEPTMTWTKDGEPIEQEDNEEKYSFNYDGSELIIKKVDKSDEAEYICIAENKAGEQDATIHLKVFAKPKITYVENKTAMELEDQITLTCEASGDPIPSITWKTSTRNISNEEKTLDGRIVVRSHARVSSLTLKEIQYTDAGEYVCTASNTIGQDSQAMYLEVQYAPKLQGPVAVYTWEGNQVNITCEVFAYPSAVISWFRDGQLLPSSNYSNIKIYNTPSASYLEVTPDSENDFGNYNCTAVNRIGQESSEFILVQADTPSSPSIDRVEPYSSTARVEFDEPEATGGVPILKYKAEWRALGEGEWHSRLYDAKEANVEGTITISGLKPETTYSVRLSAVNGKGVGEISLPSDFKTQPVREPSAPKLEGQMGEDGNSIKVNVIKQDDGGSPIRHYLIKYKAKHSSEWKPEIRLPSGIDHVMLKSLDWNAEYEVYVIAENQQGKSKPAHYAFRTSAQPTVIPASTSPTSGLGTAAIVGILIVIFVLLLVAVDVTCYFLNKCGLLMCIAVNLCGKSGPGAKGKDMEEGKAAFSKDESKEPIVEVRTEEERTPNHDGGKHTEPNETTPLTEPEHTADTAATVEDMLPSVTTGTTNSDTITETFATAQNSPTSETTTLTSSIAPPATAIPDSNAMSPGQATPAKAGASPVSPPPPSSTPKVAPLVDLSDTPSSAPATNNLSSSVLSNQGAVLSPSTVANMAETSKAAAGNKSAAPTPANLTSPPAPSEPKQEVSSTKSPEKEAAQPSTVKSPTETAKNPSNPKSEAASGGTTNPSQNEDFKMDEGTFKTPDIDLAKDVFAALGTTTPASVASGQARELASSTADSSVPAAPAKTEKTPVEDKSEVQATEIRHLQQK
effect on astrocyte proliferation (in words) ([1]; added to astrocyte cultures in SFM): also inhibited proliferation

B2: N-CAM treated with neuraminidase: purified N-CAM treated with neuraminidase to remove sialic acid (protein, UniProt P13596 20-858, looked up)
Neural cell adhesion molecule …: LQVDIVPSQGEISVGESKFFLCQVAGDAKDKDISWFSPNGEKLSPNQQRISVVWNDDDSSTLTIYNANIDDAGIYKCVVTAEDGTQSEATVNVKIFQKLMFKNAPTPQEFKEGEDAVIVCDVVSSLPPTIIWKHKGRDVILKKDVRFIVLSNNYLQIRGIKKTDEGTYRCEGRILARGEINFKDIQVIVNVPPTVQARQSIVNATANLGQSVTLVCDADGFPEPTMSWTKDGEPIENEEEDDEKHIFSDDSSELTIRNVDKNDEAEYVCIAENKAGEQDASIHLKVFAKPKITYVENQTAMELEEQVTLTCEASGDPIPSITWRTSTRNISSEEKASWTRPEKQETLDGHMVVRSHARVSSLTLKSIQYTDAGEYICTASNTIGQDSQSMYLEVQYAPKLQGPVAVYTWEGNQVNITCEVFAYPSATISWFRDGQLLPSSNYSNIKIYNTPSASYLEVTPDSENDFGNYNCTAVNRIGQESLEFILVQADTPSSPSIDRVEPYSSTAQVQFDEPEATGGVPILKYKAEWKSLGEEAWHSKWYDAKEANMEGIVTIMGLKPETRYAVRLAALNGKGLGEISAATEFKTQPVREPSAPKLEGQMGEDGNSIKVNLIKQDDGGSPIRHYLVKYRALASEWKPEIRLPSGSDHVMLKSLDWNAEYEVYVVAENQQGKSKAAHFVFRTSAQPTAIPANGSPTAGLSTGAIVGILIVIFVLLLVVMDITCYFLNKCGLLMCIAVNLCGKAGPGAKGKDMEEGKAAFSKDESKEPIVEVRTEEERTPNHDGGKHTEPNETTPLTEPEKGPVETKSEPQESEAKPAPTEVKTVPNEATQTKENESKA
modifications: desialylated by neuraminidase
notes: purified N-CAM treated with neuraminidase to remove sialic acid
[3H]-thymidine incorporation vs. SFM control ([1]; 2 μg/ml, n=2): 24±4%
